Source: patent US11123351B2, “Pharmaceutical formulation of 3-alpha-ethynyl-3-beta-hydroxyandrostan-17-one oxime” (priority 2017, dated 2021)
≈ marks a conversion by molar mass, not a printed value.

Legend:
[1] = Serum allopregnanolone exposure in the antagonist study; assay type: in vivo, human
Description: (§1) The antagonist study, with the purpose of evaluating the biological activity of the IND compound, (EudraCT 2015-004911-19) was randomized and placebo-controlled with a double-blind three-part cross-over design. Study subjects orally received: placebo (A); 3 mg of IND formulation (B); or 30 mg of IND formulation (C); followed 90 minutes later by an intravenous (i.v.) allopregnanolone injection (0.05 mg/kg) and repeated measurements of maximal saccadic eye velocity (SEV) (Saccadometer Plus, Ober Consulting Sp. z o.o, Poland) and sedation/somnolence (visual analogue scale graded from “Absence of sleepiness” to “Falling asleep) for three hours.
(§2) The IND compound and allopregnanolone were quantified by UPLC/MS/MS Waters Acquity, C18 column, and Waters XEVO-TQ-S triple quadrupole mass spectrometer. As internal standards D4-[3α-ethynyl-3β-hydroxyandrostan-17-one oxime] and D5-allopregnanolone were used, respectively. For analysis of allopregnanolone oxime-derivatization was used to increase sensitivity. Standard- and QC-samples were prepared into human blank plasma/serum. The detection limit for 3α-ethynyl-3β-hydroxyandrostan-17-one oxime was 1 ng/mL, and for allopregnanolone 0.05 ng/ml (0.15 nmol/L).

GABA-A receptor [2] = assay: Antagonist study: allopregnanolone-induced decrease in maximal saccadic eye velocity (SEV); assay type: in vivo, human; settings: responding subjects, responsive period
Description: as §1

GABA-A receptor [3] = assay: Antagonist study: allopregnanolone-induced sedation (visual analogue scale); assay type: in vivo, human; settings: responding subjects, VAS scores
Description: as §1

[4] = Clinical Phase I single ascending dose (SAD) study, pharmacokinetics and safety; assay type: in vivo, human
Source text: (§3) In total 90 eligible healthy consenting male subjects (age 18-50 years) were included in the study. The oral formulation used was a capsule containing a lipid solution of 3α-ethynyl-3β-hydroxyandrostan-17-one oxime formulated according to Example 10 above (IND formulation in the following).
(§4) The first in human single ascending dose (SAD) study (EudraCT 2015-004911-19) and the 5 day multiple ascending dose (MAD) study (EudraCT 2016-003651-30) were prospective, randomized, double-blinded and placebo-controlled and designed to assess the safety, tolerability and pharmacokinetic (PK) characteristics of single and multiple ascending oral doses of 3α-ethynyl-3β-hydroxyandrostan-17-one oxime (IND compound) in healthy male volunteers.
as §2
(§5) Pharmacokinetic parameters were evaluated using Non-Compartmental Analysis and the software Phoenix WinNonlin® version 6.3 or later (Pharsight Corporation, U.S.A.). Dose proportionality was for the SAD study based on AUC0->∞ and Cmax, and in the MAD study on steady-state AUCτ. The accumulation ratio between the first and last dose was calculated as (steady-state AUCτ/first dose AUC0->∞). Statistical calculations were with IBM SPSS statistics (Version 24, IBM).

[5] = Solubility of Compound I in different vehicles (visual inspection); assay type: physicochemical
Description: The sample was heated, if required to melt the vehicle, to approx. from 15° C.-80° C. and agitated by vortex or stirrer.
Addition was continued until a clear solution was not longer obtained after mixing.
Glycerol monooleate [Cithrol GMO from Croda Health Care] was melted at 50° C. […] The sample was heated and agitated by vortex.
(0.91 g). The sample was heated to approx. 40° C. and agitated by vortex.
The sample was agitated by vortex at room temperature.
The material was stirred at least 30 minutes between each addition.
Upon completed dissolution the temperature was decreased to 30° C. and the solution was filled in hard gelatin capsules of size 0. The target fill weight was 500 mg where after the capsules were capped and kept at −20° C. for 2-3 hours before storage in refrigerator.

[6] = Clinical Phase I 5 day multiple ascending dose (MAD) study, pharmacokinetics and safety; assay type: in vivo, human; settings: for AUC increase / CMax increase: multiple dose
Source text: as §3, §4
MAD: 50 mg once daily; 50 mg twice daily (BID), i.e. 100 mg/day; or 100 mg twice daily (BID), i.e. 200 mg/day.
as §2, §5

[7] = Solubility of 3α-ethynyl-3β-hydroxyandrostan-17-one oxime in aqueous media; assay type: physicochemical
[8] = allopregnanolone 0.05 mg/kg i.v. + placebo
[9] = single dose 3 mg versus next lower dose
[10] = single dose 10 mg versus next lower dose
[11] = single dose 30 mg versus next lower dose
[12] = single dose 100 mg versus next lower dose
[13] = single dose 200 mg versus next lower dose
[14] = allopregnanolone + Compound I 3 mg oral
[15] = allopregnanolone + Compound I 30 mg oral
[16] = day 1, 100 mg BID versus next lower dose
[17] = steady-state, day 5, 100 mg BID versus next lower dose

CC(=O)[C@H]1CC[C@H]2[C@@H]3CC[C@H]4C[C@H](O)CC[C@]4(C)[C@H]3CC[C@]12C [Allopregnanolone, allopregnanolone, reference compound]
Highest serum level ([1]; first study time point after i.v. injection 0.05 mg/kg, three study occasions): 74 to 82 nM | concentration at 10 min ([1]; human, serum, intravenous, 0.05 mg/kg, 10 min after injection, average): ~80 nM | AUC (ΔSEV) (GABA-A receptor [2]; [8]): −3018 ± 656 deg/s × min | AUC (ΔSedation) (GABA-A receptor [3]; [8]): 1928 ± 404 mm × min

C#C[C@]1(O)CC[C@@]2(C)C(CC[C@@H]3[C@@H]2CC[C@]2(C)/C(=N/O)CC[C@@H]32)C1 (stereo partly drawn) [Compound I, 3α-ethynyl-3β-hydroxyandrostan-17-one oxime]
Serious adverse events (SAEs) and dose-limiting toxicity ([4]; healthy adult males, single dose up to 200 mg): neither serious adverse events (SAEs) nor dose-limiting toxicity was observed | Dose proportionality constant β for AUC0-∞ ([4]; human, in vivo, po, 200 mg): 1.12 | Dose proportionality constant β for CMax ([4]; human, in vivo, po, 200 mg): 1.01 | AUC(0-inf) ([4]; male, human, in vivo, 1 mg): 67 ng·h/mL | Cmax ([4]; male, human, in vivo, 1 mg): 0.013 µg/mL | AUC(0-inf) ([4]; male, human, in vivo, 3 mg): 215 ng·h/mL | Cmax ([4]; male, human, in vivo, 3 mg): 0.044 µg/mL | AUC(0-inf) ([4]; male, human, in vivo, 10 mg): 785 ng·h/mL | Cmax ([4]; male, human, in vivo, 10 mg): 0.149 µg/mL | AUC(0-inf) ([4]; male, human, in vivo, 30 mg): 2560 ng·h/mL | Cmax ([4]; male, human, in vivo, 30 mg): 0.464 µg/mL | AUC(0-inf) ([4]; male, human, in vivo, 100 mg): 11900 ng·h/mL | Cmax ([4]; male, human, in vivo, 100 mg): 1.53 µg/mL | AUC(0-inf) ([4]; male, human, in vivo, 200 mg): 25800 ng·h/mL | Cmax ([4]; male, human, in vivo, 200 mg): 2.77 µg/mL | Tmax ([4]; male, human, in vivo, po): 1 to 2 h | AUC increase [4, 9]: 3.2 fold | CMax increase [4, 9]: 3.4 fold | AUC increase [4, 10]: 3.7 fold | CMax increase [4, 10]: 3.4 fold | AUC increase [4, 11]: 3.3 fold | CMax increase [4, 11]: 3.1 fold | AUC increase [4, 12]: 4.6 fold | CMax increase [4, 12]: 3.3 fold | AUC increase [4, 13]: 2.2 fold | CMax increase [4, 13]: 1.8 fold | Concentration that could be dissolved ([5]; Capric/caprylic glyceride Imwitor 742, heating temperature 60° C.): 20000 µg/mL | Concentration that could be dissolved ([5]; Capric/caprylic glyceride Imwitor 742, heating temperature 70° C.): 40000 µg/mL | Solubility ([5]; Example 1, Capric/caprylic glycerides, Imwitor 742, 40° C.): 20 to 30 mg/g | Solubility ([5]; Example 2, Glyceryl monooleate, Cithrol GMO, melted at 50° C.): 8 mg/g | Solubility ([5]; Example 3, Oleoyl macrogol-6 glycerides, Labrafil M1944 CS, approx. 40° C.): 5 mg/g | Solubility ([5]; Example 5, Propylenglycol monocaprylate type I, Capryol PGMC, room temperature): 15 mg/g | Solubility ([5]; Example 6, Propylenglycol monocaprylate type II, Capryol 90, room temperature): 23 mg/g | Solubility ([5]; Example 7, Polyoxyethylene-8 caprylic/capric glycerides, Acconon MC8-2, room temperature): 2 mg/g | Solubility ([5]; propylene glycol monolaurate type I (Lauroglycol FCC), oil or lipid, thermodynamic from solid, Example 4, Propylenglycol monolaurate type I, Lauroglycol FCC, room temperature, read-out: Solubility): 6000 µg/mL (≈ 18200 µM) | AUC (ΔSEV) (GABA-A receptor [2]; [14]): −1592 ± 924 deg/s × min | AUC (ΔSEV) (GABA-A receptor [2]; [15]): −909 ± 798 deg/s × min | Serious adverse events (SAEs) and dose-limiting toxicity ([6]; healthy adult males, up to 100 mg every 12 hours for 5 days): neither serious adverse events (SAEs) nor dose-limiting toxicity was observed | Increase in AUC0->∞ when the dose was doubled ([6]; human, in vivo): 1.9 times | AUC increase [6, 16]: 1.9 fold | CMax increase [6, 16]: 1.4 fold | AUC increase [6, 17]: 1.9 fold | CMax increase [6, 17]: 1.6 fold | Solubility ([7]; FaSSIF (fasted-state simulated intestinal fluid), fassif): 7 µg/mL (≈ 21.2 µM) | Solubility ([7]; FeSSIF (fed-state simulated intestinal fluid), fessif): 19 µg/mL (≈ 57.7 µM) | Solubility ([7]; SGF (simulated gastric fluid), simulated gastric fluid): 0.2 µg/mL (≈ 0.607 µM) | Solubility ([7]; water): 1.5 µg/mL (≈ 4.55 µM) | AUC (ΔSedation) (GABA-A receptor [3]; [14]): 698 ± 332 mm × min | AUC (ΔSedation) (GABA-A receptor [3]; [15]): 416 ± 469 mm × min
